Holding throughout (format): cell-based, Human
One assay has as its system MDM2 gene. The assay is described as follows: RT-qPCR MDM2 gene expression in BEAS-2B. Particulars: 24 h; for fold induction at 100 µM: Homo sapiens, reference gene RPL41, vs untreated control, read-out: Relative level of expression, MDM2 gene. How it is done: (§1) Real-time polymerase chain reaction was performed for the reference gene RPL41 (ribosomal protein L41) and the tested genes: BCL2, AIFM2, MDM2, IL6 and IL8. […] The BEAS-2B line was selected for the experiment. The expression level of selected genes was measured after 24 h of incubation with the tested substances MJ1–MJ20 at a concentration of 100 μM (Table 3).
The RT-qPCR experiment was performed for the BEAS-2B cell line. In this experiment, the MDM2 gene was studied and RPL41 was used as reference gene (Figure 15).
(§2) Gene expression studies used quantitative RT-qPCR to assess the effect of the tested quinobenzothiazines (MJ1–MJ20) on the expression of apoptosis-related genes (BCL2, AIFM2, MDM2) and pro-inflammatory cytokines (IL6, IL8) (Table 4).
(§3) BEAS-2B and HCT116 cells were seeded in 6-well plates at 2 × 10^5 cells per well and cultured in RPMI-1640 (BEAS-2B) or DMEM (HCT116) medium supplemented with 10% FBS and 1% penicillin/streptomycin at 37 °C, 5% CO2 and 95% humidity. After 24 h of incubation, the tested compounds were added at a concentration of 100 µM. After 24 h, the medium was removed from the cells, washed with PBS solution, 0.5 mL of trypsin was added per well and after 5 min it was neutralized with medium. The obtained cell suspension was centrifuged for 3 min at 2000 rpm, the supernatant was removed, and the obtained pellet was suspended in 400 µL of phenozol. Samples were frozen at −20 °C and stored until further experiment and RNA isolation.
(§4) Total RNA was isolated from cells using the A&A Biotechnology Total RNA Mini kit according to the manufacturer’s protocol. RNA quality and quantity were assessed using a NanoDrop 2000 spectrophotometer at 260/280 nm. Reverse transcription was performed using the protocol (EURx NG dART RT Kit) to obtain cDNA. After incubation, samples were placed in a freezer (−20 °C) and stored until further analysis.
(§5) The experiment was performed according to the protocol (Brilliant III Ultra Fast SYBR® Green QPCR Master Mix, Quick Reference Guide for the Bio-Rad CFX96 Real-Time PCR Detection System). RT-qPCR reaction was performed using specific primers for target genes (BCL2, AIFM2, MDM2, IL6, IL8). Gene expression was normalized to the expression of the reference gene RPL41. Reaction profiles and results were performed using Bio-Rad CFX Maestro 1.1 software from Bio-Rad. Analysis and calculations of the results obtained during RT-qPCR were performed using Microsoft Excel.
(§6) The results were analyzed using the R = 2^−ΔΔCt method, which allows for determining the relative level of gene expression (R) compared to the control. Each experiment was performed in three technical and biological replicates. RT-qPCR allowed for precise assessment of changes in the expression of genes related to the processes of apoptosis and inflammatory response under the influence of quinobenzothiazines, which allowed for identifying their potential mechanisms of action at the molecular level.
In general terms: Quantitative PCR measures a nucleic acid by following its amplification.

Another assay deals with AIFM2 gene. The assay is described as follows: RT-qPCR AIFM2 gene expression in BEAS-2B. To be noted: 24 h; for fold induction at 100 µM: Homo sapiens, reference gene RPL41, vs untreated control, read-out: Relative level of expression, AIFM2 gene; for AIFM2 expression increase: 100 μM, compared to control. How it is done: as §1
The RT-qPCR experiment was performed for the BEAS-2B cell line. In this experiment, the AIFM2 gene was studied and RPL41 was used as reference gene (Figure 16).
as §2, §3, §4, §5, §6

Another assay has as its system IL6 gene. Description: RT-qPCR IL6 gene expression in BEAS-2B. Particulars: 24 h; for fold induction at 100 µM: Homo sapiens, reference gene RPL41, vs untreated control, read-out: Relative level of expression, IL6 gene. How it is done: as §1
The RT-qPCR experiment was performed for the BEAS-2B cell line. In this experiment, the IL6 and IL8 genes were studied and RPL41 was used as a reference gene (Figure 17 and Figure 18).
as §2, §3, §4, §5, §6

The subject of the next assay is BEAS-2B cells. The assay is described as follows: DAPI staining for nuclear morphology and apoptosis, BEAS-2B. Particulars: 100 μM, 24 h. Here is the method:
(§7) The BEAS-2B, NHDF, HCT116, MCF7, SH-SY5Y, A549 cell lines studied were cultured in DMEM medium supplemented with 10% fetal bovine serum (FBS) and 1% penicillin/streptomycin solution. Cells were seeded at 1 × 10^4 per well in 96-well plates and incubated for 24 h under standard culture conditions: temperature 37 °C, 5% CO2, 95% humidity. After 24 h, compounds from the MJ1–MJ20 group were added to individual wells at different concentrations (6.25 µM, 12.5 µM, 25 µM, 50 µM, 100 µM). The control consisted of cells grown only in medium without the addition of chemical compounds. After 24 h of incubation, cells were observed under a microscope (JuLI™ FL Live fluorescence microscope from NanoEntek, Martinsried, Germany), documenting morphological changes. Observations included visual assessments of confluence, cell shape, arrangement, and interaction with the substrate. The Supplementary Materials include a comprehensive collection of microscopic images showing the morphology of the tested cell lines (BEAS-2B, NHDF, HCT116, MCF7, SH-SY5Y, A549) after 24 h of incubation with compounds MJ1–MJ20. These images illustrate the effects of the compounds on cell shape, density, and adhesion. The images are provided as a separate PDF file for further reference. For apoptosis observations, the samples of BEAS-2B and HCT116 cells were additionally fixed with 4% paraformaldehyde (PFA) after 24 h of incubation with, or without selected compounds (Section 2.6) and DAPI stained for apoptotic bodies visualization (Fluoromount-G™ medium with DAPI dye; Thermo Fisher Scientific, Waltham, MA, USA). The samples were visualized using fluorescent microscopy AXIO IMAGER M1 by ZEISS, DAPI channel and 20x magnification. The percent of counted cells with apoptotic nucleus was defined in comparison to all visualized events.
(§8) BEAS-2B and HCT116 cells were seeded into culture plates at 5 × 10^3 cells per well using 0.5 mL of RPMI-1640 medium (for BEAS-2B) or DMEM (for HCT116). The plates were incubated for 24 h at 37 °C in an atmosphere containing 5% CO2. After incubation, the medium was removed and compounds MJ2, MJ8, MJ15, and MJ19 were added in the appropriate medium at a concentration of 100 μM. The plates were incubated for 24 h at 37 °C in an atmosphere containing 5% CO2. After incubation, the medium was removed, and 500 µL of 4% paraformaldehyde (PFA) was added to each well to fix the cells. Incubation continued for 10 min at room temperature. After removal of the PFA, the wells were rinsed with 500 µL of PBS (5 min of incubation) and then with distilled water. The cells were allowed to dry at room temperature. After drying, the cells were stained with DAPI. Observations were made using a fluorescence microscope AXIO IMAGER M1 by ZEISS at 20x magnification.

The subject of the next assay is HCT116 cells. Description: DAPI staining for nuclear morphology and apoptosis, HCT116. Particulars: HCT116, 100 μM, 24 h. How it is done:
as §7, §8

With `Fc1ccc2c(c1)Sc1cc3ccccc3nc1N2Cc1cn(Cc2ccc(Cl)cc2)nn1` [MJ8, 9-Fluoro-6-[(1-(4-chlorobenzyl)-1H-1,2,3-triazol-4-yl)methyl]-quino[3,2-b]benzo-[1,4]thiazine], the fold induction at 100 µM stood at 8.1 in the assay on MDM2 gene, 4.2 in the assay on AIFM2 gene and 9.9 in the assay with IL6 gene. Further, the “Apoptotic changes in cell nuclei (DAPI)” value in the assay on BEAS-2B cells and in the assay on HCT116 cells was “no significant apoptotic changes” throughout.

Regarding `CSc1ccc2c(c1)Sc1cc3ccccc3nc1N2Cc1cn(Cc2ccc(C#N)cc2)nn1` [MJ19, 4-((4-((9-Methylthioquino[3,2-b]benzo[1,4]thiazin-6-yl)methyl)-1H-1,2,3-triazol-1-yl)methyl)benzonitrile], the MDM2 expression increase in the assay with MDM2 gene (100 μM, compared to control) amounted to 10.3 fold. Further, the fold induction at 100 µM in the assay with MDM2 gene stood at 10.3; in the assay with AIFM2 gene, 14.9; in the assay on IL6 gene it was 57.2. In the assay on AIFM2 gene, this compound came in with an AIFM2 expression increase of 14.9 fold. The IL6 expression increase in the assay on IL6 gene (100 μM, compared to control) is 57.2 fold. For the same compound, the “Apoptotic changes in cell nuclei (DAPI)” value with BEAS-2B cells and in the assay on HCT116 cells was “no significant apoptotic changes” each time.

Turning to `Clc1ccc2c(c1)Sc1cc3ccccc3nc1N2Cc1cn(CSc2ccccc2)nn1` [MJ15, 9-Chloro-6-((1-((phenylthio)methyl)-1H-1,2,3-triazol-4-yl)methyl)-quino[3,2-b]benzo[1,4]thiazine], the fold induction at 100 µM turned out to be 6.4 in the assay on MDM2 gene, 2.6 with AIFM2 gene and 13 in the assay with IL6 gene. The “Apoptotic changes in cell nuclei (DAPI)” value with BEAS-2B cells and in the assay with HCT116 cells was “no significant apoptotic changes” throughout.

`Fc1ccc(Cn2cc(CN3c4ccccc4Sc4cc5ccccc5nc43)nn2)cc1` [MJ2, 6-((1-(4-Fluorobenzyl)-1H-1,2,3-triazol-4-yl)methyl)-quino[3,2-b]benzo[1,4]thiazine]: the figures for the fold induction at 100 µM with MDM2 gene, in the assay on AIFM2 gene and in the assay with IL6 gene were 6.3, 11.4 and 1.7, respectively. In the assay with AIFM2 gene, the AIFM2 expression increase worked out at 11.4 fold. Moreover, the “Apoptotic changes in cell nuclei (DAPI)” value in the assay with BEAS-2B cells and with HCT116 cells was “no significant apoptotic changes” each time.

(Values after article PMC12295927, “Design, Synthesis, and Testing of 1,2,3-Triazolo-Quinobenzothiazine Hybrids for Cytotoxic and Immunomodulatory Activity” (International Journal of Molecular Sciences, 2025).)
